Assay [1] has as its target T1, p97 (Homo sapiens, UniProt P55072). Kind of assay: malachite green ATPase assay, 9-point dose-response. The format is biochemical.
The target of assay [2] is T1, p97. Kind of assay: malachite green ATPase assay, dose-response. The format is biochemical.

In general, IC50 refers to the point on the concentration scale where inhibition reaches its midpoint. A higher IC50 goes with weaker potency in that assay.

T1 sequence (P55072 2-806): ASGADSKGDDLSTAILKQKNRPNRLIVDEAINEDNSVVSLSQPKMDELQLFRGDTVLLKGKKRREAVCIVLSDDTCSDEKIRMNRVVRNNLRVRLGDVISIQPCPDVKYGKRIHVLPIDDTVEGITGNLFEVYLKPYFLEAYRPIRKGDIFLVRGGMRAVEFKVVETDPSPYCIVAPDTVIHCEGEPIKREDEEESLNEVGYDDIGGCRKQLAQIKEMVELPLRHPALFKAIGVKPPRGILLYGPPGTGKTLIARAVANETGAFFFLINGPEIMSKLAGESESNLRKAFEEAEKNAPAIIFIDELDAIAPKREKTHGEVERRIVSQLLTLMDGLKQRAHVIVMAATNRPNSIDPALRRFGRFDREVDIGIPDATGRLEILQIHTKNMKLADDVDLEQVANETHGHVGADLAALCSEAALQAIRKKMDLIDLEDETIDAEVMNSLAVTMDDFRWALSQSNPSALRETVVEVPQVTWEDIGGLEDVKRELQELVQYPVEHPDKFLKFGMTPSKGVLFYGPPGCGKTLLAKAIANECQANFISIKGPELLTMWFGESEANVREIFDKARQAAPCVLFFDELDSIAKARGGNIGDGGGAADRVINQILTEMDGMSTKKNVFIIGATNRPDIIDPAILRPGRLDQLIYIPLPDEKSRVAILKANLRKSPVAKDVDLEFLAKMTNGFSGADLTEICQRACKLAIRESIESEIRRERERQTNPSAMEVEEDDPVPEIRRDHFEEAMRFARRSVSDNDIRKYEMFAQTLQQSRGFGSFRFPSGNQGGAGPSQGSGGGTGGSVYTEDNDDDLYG

On p97 [1], `C[C@H]1CCC/C=C/C(=O)c2c(O)cc(O)cc2CC(=O)O1` [compound 2, 10(11)-dehydrocurvularin] gave an IC50 of 15.3 ± 9.9 µM.
Consider `C[C@H]1CCC/C=C/C(=O)c2c(cc(O)c(Cl)c2O)CC(=O)O1` [compound 3, 6-chloro-10(11)-dehydrocurvularin], for which half-maximal inhibition at p97 [2] (IC50) required 24.3 µM.
In turn, `C[C@H]1CCC/C=C/C(=O)c2c(O)c(Cl)c(O)c(Cl)c2CC(=O)O1` [compound 4, 4,6-dichloro-10(11)-dehydrocurvularin] registered a 50% inhibitory concentration (IC50) on p97 [2] of 13.9 µM.

The values above are taken from paper PMC5466822 (Organic & biomolecular chemistry, 2016).
